The results in this text go back to ChEMBL document CHEMBL1128816, “Synthesis and structure-activity relationships of new acetylcholinesterase inhibitors: Morpholinoalkylcarbamoyloxyeseroline derivatives” (Bioorg Med Chem Lett, 1995).

For orientation: IC50 means the concentration that inhibits the measured activity by half. The low end stands for higher potency, the high end for lower potency.

The test deals with Acetylcholinesterase (Homo sapiens, UniProt P22303). Nature of the test: Inhibition of Acetylcholinesterase (AChE) from human RBC.
Chain of Acetylcholinesterase (P22303 whole entry): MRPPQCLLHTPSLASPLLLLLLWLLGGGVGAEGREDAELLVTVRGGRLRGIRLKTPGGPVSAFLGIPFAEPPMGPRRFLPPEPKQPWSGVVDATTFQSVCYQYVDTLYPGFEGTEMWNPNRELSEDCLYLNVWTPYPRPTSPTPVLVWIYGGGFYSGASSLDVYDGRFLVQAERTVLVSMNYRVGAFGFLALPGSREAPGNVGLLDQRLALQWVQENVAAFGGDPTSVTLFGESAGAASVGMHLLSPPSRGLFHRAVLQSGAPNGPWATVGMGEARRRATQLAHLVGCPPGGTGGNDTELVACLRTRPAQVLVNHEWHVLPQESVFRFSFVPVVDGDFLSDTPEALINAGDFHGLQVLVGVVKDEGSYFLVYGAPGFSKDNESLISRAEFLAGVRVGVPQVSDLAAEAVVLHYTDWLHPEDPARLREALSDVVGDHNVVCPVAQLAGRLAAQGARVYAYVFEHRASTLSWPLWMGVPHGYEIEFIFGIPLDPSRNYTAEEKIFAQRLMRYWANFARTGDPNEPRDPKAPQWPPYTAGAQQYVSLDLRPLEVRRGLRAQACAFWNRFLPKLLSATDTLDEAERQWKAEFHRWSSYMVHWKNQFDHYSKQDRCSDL

On to `CN1CC[C@@]2(C)c3cc(OC(=O)NCCCCN4CCOCC4)ccc3N(C)[C@@H]12`, for which the IC50 came out at 21 µM.

As to `CN1CC[C@@]2(C)c3cc(OC(=O)NCCCCCCCCN4CCOCC4)ccc3N(C)[C@@H]12`, the IC50 was found to be 0.08 µM.
